Reference: EP1935986B1, “Luminogenic and fluorogenic compounds and methods to detect molecules or conditions” (priority 2005, dated 2006)

Experiments:
[1] = tested on: thermostable luciferase (Luc 146-1H2); assay: Thermostable luciferase reaction with luciferin derivatives: light readings; format: biochemical
Description: (§1) This stock was used to produce enzyme stock solution having of 200 µg/ml enzyme solution in 1 mg/ml BSA, 200 mM HEPES buffer, pH 8.0, 20 mM MgCl2.
(§2) Solutions were made using a 1 M DTT solution, pH adjusted to 8.0, a 20 mM Coenzyme A solution in water (both described in examples above), a 100 mM ATP solution and water to create the following solutions: Sol'A, 100 µM ATP; Sol'B, 100 µM ATP, 4 mM Coenzyme A; Sol'n C, 100 µM ATP, 400 mM DTT, and; Sol'n D, 100 µM ATP, 4 mM Coenzyme A and 400 mM DTT.
The following reactions were prepared (Table 47) Table 47
(§3) After assembly, the reactions were initiated by addition of 25 µl of the thermostable luciferase stock solution above and mixing the tube contents. A 50 µl sample was immediately removed and placed in a luminometer tube and the light read and the tube then replaced in a tube rack at room temperature. While the light reading was being taken, a 5 µl sample of the remaining reaction (which was kept at room temperature) was diluted into 495 µl of 50 mM BisTris, pH 6.5, 1 mg/ml BSA, 1 mM EDTA prechilled to 4°C and the tube mixed and placed on ice. The light produced by the samples in the luminometer tubes were re-read at 20, 40, 60, 90 and 120 minutes post enzyme addition. Additional 5 µl samples were taken and diluted as above at 60 and 120 minutes post enzyme addition. Once all these readings and samples were taken, 50 µl of the diluted samples was mixed with 50 µl of Steady Glo in luminometer tubes, the tubes incubated 10 minutes on ice then the light produced was read on a Turner TD 20/20 luminometer.

[2] = tested on: thermostable luciferase (Luc 146-1H2); assay: Residual thermostable luciferase activity after reaction with luciferin derivatives (Steady Glo); format: biochemical
Description: as §1, §2, §3

- light readings from the reaction samples ([1]; substrate 6.25 (L'in-BE: 6.26), + Co A & DTT, Time 0 min): 77.35
- light readings from the reaction samples ([1]; substrate 6.25 (L'in-BE: 6.26), + Co A & DTT, Time 20 min): 7.958
- light readings from the reaction samples ([1]; substrate 6.25 (L'in-BE: 6.26), + Co A & DTT, Time 40 min): 3.656
- light readings from the reaction samples ([1]; substrate 6.25 (L'in-BE: 6.26), + Co A & DTT, Time 60 min): 2.312
- light readings from the reaction samples ([1]; substrate 6.25 (L'in-BE: 6.26), + Co A & DTT, Time 90 min): 1.414
- light readings from the reaction samples ([1]; substrate 6.25 (L'in-BE: 6.26), + Co A & DTT, Time 120 min): 1.134
- light readings from the reaction samples ([1]; substrate 6.25 (L'in-BE: 6.26), + Co A, Time 0 min): 1829
- light readings from the reaction samples ([1]; substrate 6.25 (L'in-BE: 6.26), + Co A, Time 20 min): 114
- light readings from the reaction samples ([1]; substrate 6.25 (L'in-BE: 6.26), + Co A, Time 40 min): 57.82
- light readings from the reaction samples ([1]; substrate 6.25 (L'in-BE: 6.26), + Co A, Time 60 min): 37.53
- light readings from the reaction samples ([1]; substrate 6.25 (L'in-BE: 6.26), + Co A, Time 90 min): 24.66
- light readings from the reaction samples ([1]; substrate 6.25 (L'in-BE: 6.26), + Co A, Time 120 min): 17.02
- light readings from the reaction samples ([1]; substrate 6.25 (L'in-BE: 6.26), + DTT, Time 0 min): 72.52
- light readings from the reaction samples ([1]; substrate 6.25 (L'in-BE: 6.26), + DTT, Time 20 min): 5.903
- light readings from the reaction samples ([1]; substrate 6.25 (L'in-BE: 6.26), + DTT, Time 40 min): 3.073
- light readings from the reaction samples ([1]; substrate 6.25 (L'in-BE: 6.26), + DTT, Time 60 min): 2.089
- light readings from the reaction samples ([1]; substrate 6.25 (L'in-BE: 6.26), + DTT, Time 90 min): 1.431
- light readings from the reaction samples ([1]; substrate 6.25 (L'in-BE: 6.26), + DTT, Time 120 min): 1.125
- light readings from the reaction samples ([1]; substrate 6.25 (L'in-BE: 6.26), Alone, Time 0 min): 121
- light readings from the reaction samples ([1]; substrate 6.25 (L'in-BE: 6.26), Alone, Time 20 min): 5.884
- light readings from the reaction samples ([1]; substrate 6.25 (L'in-BE: 6.26), Alone, Time 40 min): 3.316
- light readings from the reaction samples ([1]; substrate 6.25 (L'in-BE: 6.26), Alone, Time 60 min): 2.352
- light readings from the reaction samples ([1]; substrate 6.25 (L'in-BE: 6.26), Alone, Time 90 min): 1.569
- light readings from the reaction samples ([1]; substrate 6.25 (L'in-BE: 6.26), Alone, Time 120 min): 1.154
- light readings from the reaction samples ([1]; substrate 25, + Co A & DTT, Time 0 min): 57.98
- light readings from the reaction samples ([1]; substrate 25, + Co A & DTT, Time 20 min): 5.721
- light readings from the reaction samples ([1]; substrate 25, + Co A & DTT, Time 40 min): 3.272
- light readings from the reaction samples ([1]; substrate 25, + Co A & DTT, Time 60 min): 2.192
- light readings from the reaction samples ([1]; substrate 25, + Co A & DTT, Time 90 min): 1.379
- light readings from the reaction samples ([1]; substrate 25, + Co A & DTT, Time 120 min): 1.174
- light readings from the reaction samples ([1]; substrate 25, + Co A, Time 0 min): 489.2
- light readings from the reaction samples ([1]; substrate 25, + Co A, Time 20 min): 45.45
- light readings from the reaction samples ([1]; substrate 25, + Co A, Time 40 min): 25.08
- light readings from the reaction samples ([1]; substrate 25, + Co A, Time 60 min): 16.96
- light readings from the reaction samples ([1]; substrate 25, + Co A, Time 90 min): 11.03
- light readings from the reaction samples ([1]; substrate 25, + Co A, Time 120 min): 7.309
- light readings from the reaction samples ([1]; substrate 25, + DTT, Time 0 min): 56.59
- light readings from the reaction samples ([1]; substrate 25, + DTT, Time 20 min): 3.761
- light readings from the reaction samples ([1]; substrate 25, + DTT, Time 40 min): 2.196
- light readings from the reaction samples ([1]; substrate 25, + DTT, Time 60 min): 1.668
- light readings from the reaction samples ([1]; substrate 25, + DTT, Time 90 min): 1.274
- light readings from the reaction samples ([1]; substrate 25, + DTT, Time 120 min): 1.157
- light readings from the reaction samples ([1]; substrate 25, Alone, Time 0 min): 59.87
- light readings from the reaction samples ([1]; substrate 25, Alone, Time 20 min): 3.176
- light readings from the reaction samples ([1]; substrate 25, Alone, Time 40 min): 1.919
- light readings from the reaction samples ([1]; substrate 25, Alone, Time 60 min): 1.305
- light readings from the reaction samples ([1]; substrate 25, Alone, Time 90 min): 1.178
- light readings from the reaction samples ([1]; substrate 25, Alone, Time 120 min): 1.03
- light readings from the reaction samples ([1]; substrate 100, + Co A & DTT, Time 0 min): 25.41
- light readings from the reaction samples ([1]; substrate 100, + Co A & DTT, Time 20 min): 3.278
- light readings from the reaction samples ([1]; substrate 100, + Co A & DTT, Time 40 min): 2.027
- light readings from the reaction samples ([1]; substrate 100, + Co A & DTT, Time 60 min): 1.666
- light readings from the reaction samples ([1]; substrate 100, + Co A & DTT, Time 90 min): 1.27
- light readings from the reaction samples ([1]; substrate 100, + Co A & DTT, Time 120 min): 1.157
- light readings from the reaction samples ([1]; substrate 100, + Co A, Time 0 min): 97.88
- light readings from the reaction samples ([1]; substrate 100, + Co A, Time 20 min): 10.3
- light readings from the reaction samples ([1]; substrate 100, + Co A, Time 40 min): 7.127
- light readings from the reaction samples ([1]; substrate 100, + Co A, Time 60 min): 5.562
- light readings from the reaction samples ([1]; substrate 100, + Co A, Time 90 min): 3.969
- light readings from the reaction samples ([1]; substrate 100, + Co A, Time 120 min): 2.845
- light readings from the reaction samples ([1]; substrate 100, + DTT, Time 0 min): 22.47
- light readings from the reaction samples ([1]; substrate 100, + DTT, Time 20 min): 2.233
- light readings from the reaction samples ([1]; substrate 100, + DTT, Time 40 min): 1.292
- light readings from the reaction samples ([1]; substrate 100, + DTT, Time 60 min): 1.164
- light readings from the reaction samples ([1]; substrate 100, + DTT, Time 90 min): 1.093
- light readings from the reaction samples ([1]; substrate 100, + DTT, Time 120 min): 0.958
- light readings from the reaction samples ([1]; substrate 100, Alone, Time 0 min): 20.46
- light readings from the reaction samples ([1]; substrate 100, Alone, Time 20 min): 1.18
- light readings from the reaction samples ([1]; substrate 100, Alone, Time 40 min): 0.868
- light readings from the reaction samples ([1]; substrate 100, Alone, Time 60 min): 0.788
- light readings from the reaction samples ([1]; substrate 100, Alone, Time 90 min): 0.627
- light readings from the reaction samples ([1]; substrate 100, Alone, Time 120 min): 0.544
- light values obtained upon addition of the diluted reaction samples into Steady Glo reagent ([2]; Substrate 6.25, + Co A & DTT, Time Sample Taken 0 min): 1836
- light values obtained upon addition of the diluted reaction samples into Steady Glo reagent ([2]; Substrate 6.25, + Co A & DTT, Time Sample Taken 60 min): 1625
- light values obtained upon addition of the diluted reaction samples into Steady Glo reagent ([2]; Substrate 6.25, + Co A & DTT, Time Sample Taken 120 min): 1622
- light values obtained upon addition of the diluted reaction samples into Steady Glo reagent ([2]; Substrate 6.25, + Co A, Time Sample Taken 0 min): 1647
- light values obtained upon addition of the diluted reaction samples into Steady Glo reagent ([2]; Substrate 6.25, + Co A, Time Sample Taken 60 min): 976.8
- light values obtained upon addition of the diluted reaction samples into Steady Glo reagent ([2]; Substrate 6.25, + Co A, Time Sample Taken 120 min): 921.4
- light values obtained upon addition of the diluted reaction samples into Steady Glo reagent ([2]; Substrate 6.25, + DTT, Time Sample Taken 0 min): 1631
- light values obtained upon addition of the diluted reaction samples into Steady Glo reagent ([2]; Substrate 6.25, + DTT, Time Sample Taken 60 min): 1544
- light values obtained upon addition of the diluted reaction samples into Steady Glo reagent ([2]; Substrate 6.25, + DTT, Time Sample Taken 120 min): 1695
- light values obtained upon addition of the diluted reaction samples into Steady Glo reagent ([2]; Substrate 6.25, Alone, Time Sample Taken 0 min): 1402
- light values obtained upon addition of the diluted reaction samples into Steady Glo reagent ([2]; Substrate 6.25, Alone, Time Sample Taken 60 min): 1158
- light values obtained upon addition of the diluted reaction samples into Steady Glo reagent ([2]; Substrate 6.25, Alone, Time Sample Taken 120 min): 1073
- light values obtained upon addition of the diluted reaction samples into Steady Glo reagent ([2]; Substrate 25, + Co A & DTT, Time Sample Taken 0 min): 529.6
- light values obtained upon addition of the diluted reaction samples into Steady Glo reagent ([2]; Substrate 25, + Co A & DTT, Time Sample Taken 60 min): 1268
- light values obtained upon addition of the diluted reaction samples into Steady Glo reagent ([2]; Substrate 25, + Co A & DTT, Time Sample Taken 120 min): 1329
- light values obtained upon addition of the diluted reaction samples into Steady Glo reagent ([2]; Substrate 25, + Co A, Time Sample Taken 0 min): 1547
- light values obtained upon addition of the diluted reaction samples into Steady Glo reagent ([2]; Substrate 25, + Co A, Time Sample Taken 60 min): 777.5
- light values obtained upon addition of the diluted reaction samples into Steady Glo reagent ([2]; Substrate 25, + Co A, Time Sample Taken 120 min): 588.7
- light values obtained upon addition of the diluted reaction samples into Steady Glo reagent ([2]; Substrate 25, + DTT, Time Sample Taken 0 min): 1116
- light values obtained upon addition of the diluted reaction samples into Steady Glo reagent ([2]; Substrate 25, + DTT, Time Sample Taken 60 min): 1372
- light values obtained upon addition of the diluted reaction samples into Steady Glo reagent ([2]; Substrate 25, + DTT, Time Sample Taken 120 min): 1393
- light values obtained upon addition of the diluted reaction samples into Steady Glo reagent ([2]; Substrate 25, Alone, Time Sample Taken 0 min): 1345
- light values obtained upon addition of the diluted reaction samples into Steady Glo reagent ([2]; Substrate 25, Alone, Time Sample Taken 60 min): 973.4
- light values obtained upon addition of the diluted reaction samples into Steady Glo reagent ([2]; Substrate 25, Alone, Time Sample Taken 120 min): 860.3
SMILES: O=C(O)[C@H]1CSC(c2nc3ccc(OCCCl)cc3s2)=N1 [L'in-CEE]
